Structures are written as SMILES. Values after ≈ are worked out from the molar mass of the structure shown. Read-outs that look alike come from different tables or passages of the source.

The nature of data set [1]: Solubility of anti-tuberculosis compounds in PBS. The class given is physicochemical. To be noted: aqueous buffer.
Data set [2] can be described thus: In vivo drug release: drug concentration in blood plasma after subcutaneous implants. On the set-up: species or system Wistar Han rat. Conditions: rat, three compressed implants subcutaneous; for concentration at 0.167 days / concentration at 0.25 days / concentration at 1 day / concentration at 2 days / concentration at 9 days / concentration at 16 days / concentration at 30 days / concentration at 44 days / concentration at 0.083 days / concentration at 58 days: Wistar Han, plasma, sc; for concentration at 0.167 days / concentration at 0.25 days / concentration at 1 day / concentration at 2 days / concentration at 9 days / concentration at 16 days / concentration at 30 days / concentration at 44 days: 60 mg/animal; for concentration at 0.083 days / concentration at 58 days: 60 mg. The text has this: For each implantation, a Wistar Han rat was anesthetized using isoflurane to effect prior to subcutaneous dose administration. Using a trocar needle, three implants from each formulation example above were placed subcutaneously in the intrascapular region of a rat. Three animals were used for each formulation. Animals were monitored until recovered. At indicated time points, samples of blood were obtained from anesthetized animals (using isoflurane) and processed to plasma for determination of drug concentration by LC/MS. Results are shown in the below table (Table 4).

Data set [3] is described as follows: In vitro drug release from compressed implants. The class given is physicochemical. Conditions: compressed implant 80wt % drug, PBS with 0.2 or 5wt % SDS, 37° C., 50 rpm. On the procedure:
The in vitro release rate of the drug was determined by incubating individual implants in a glass vial with phosphate buffered saline (PBS) containing 0.2 or 5wt % sodium dodecyl sulfate (SDS) at 37° C., and 50 rpm shaking in an Innova 42 incubator. The volume of media was sufficient to maintain sink conditions. Sink conditions are defined as the drug concentration maintained at or below ⅓ of the maximum solubility. Samples were removed at selected time points, and centrifuged at 20,800×g for 8 min. The supernatant was analyzed by HPLC.

[4] abbreviates: dissolution media PBS, 37° C., read-out: Solubility at 37° C.
Setting [5] is: in phosphate buffered saline (PBS), read-out: aqueous solubility.

As for `CO[C@H]1/C=C/O[C@@]2(C)Oc3c(C)c(O)c4c(O)c(c(/C=N/N5CCN(C6CCCC6)CC5)c(O)c4c3C2=O)NC(=O)/C(C)=C\C=C\[C@H](C)[C@H](O)[C@@H](C)[C@@H](O)[C@@H](C)[C@H](OC(C)=O)[C@@H]1C` [rifapentine], the solubility in data set [1] (setting [4]) was found to be 0.134 mg/mL (≈ 153 µM). Moreover, the solubility in data set [1] (setting [5]) was under 0.2 mg/mL. In addition, the concentration at 0.167 days in data set [2] (0.167 days) amounted to 0.803 µM. Besides, the concentration at 0.25 days in data set [2] (0.25 days) amounted to 1.25 µM. The same compound had a concentration at 1 day in data set [2] (1 day) of 3.53 µM. In addition, the concentration at 2 days in data set [2] (2 days) came out at 5.21 µM. In data set [2], the concentration at 9 days amounted to 5.98 µM, the concentration at 16 days came out at 2.26 µM, the concentration at 30 days amounted to 1.01 µM and the concentration at 44 days is 1.46 µM. Besides, the concentration at 58 days in data set [2] is 0.477 µM. Moreover, the concentration at 0.083 days in data set [2] (0.083 days) was 0.63 µM.
`COc1nc2ccc(Br)cc2cc1[C@@H](c1ccccc1)[C@@](O)(CCN(C)C)c1cccc2ccccc12` [bedaquiline]: the solubility is 0.129 mg/mL (≈ 232 µM) in data set [1] (setting [4]) and under 0.2 mg/mL in data set [1] (setting [5]). The “Cumulative in vitro drug release Avg.” value in data set [3] (1 day) is 10.9%; in data set [3] (11 days) it was 41.4%; in data set [3] (20 days), 57.2%. The “Drug concentration in blood plasma Avg.” value in data set [2] (0.083 days), in data set [2] (0.167 days), in data set [2] (0.25 days), in data set [2] (1 day) and in data set [2] (2 days) was “BLQ” throughout. Moreover, the concentration at 9 days in data set [2] amounted to 0.081 µM. The same compound returned a concentration at 16 days in data set [2] of 0.0636 µM. In data set [2], the concentration at 30 days was found to be 0.0517 µM. The same compound gave a concentration at 44 days in data set [2] of 0.0703 µM. In data set [2], this compound had a concentration at 58 days of 0.0602 µM.
Consider `CO[C@H]1/C=C/O[C@@]2(C)Oc3c(C)c(O)c4c(c3C2=O)C2=NC3(CCN(CC(C)C)CC3)NC2=C(NC(=O)/C(C)=C\C=C\[C@H](C)[C@H](O)[C@@H](C)[C@@H](O)[C@@H](C)[C@H](OC(C)=O)[C@@H]1C)C4=O` [rifabutin], for which the solubility in data set [1] (setting [4]) came to 0.101 mg/mL (≈ 119 µM). Further, the solubility in data set [1] (setting [5]) is under 0.2 mg/mL. The “Cumulative in vitro drug release Avg.” value in data set [3] (1 day) is 40.6%. Also, the “Cumulative in vitro drug release Avg.” value in data set [3] (11 days) worked out at 107.7%. This compound also registered a concentration at 0.167 days in data set [2] (0.167 days) of 0.164 µM. In data set [2] (0.25 days), this compound came in with a concentration at 0.25 days of 0.244 µM. In addition, in data set [2] (1 day), the concentration at 1 day came to 0.209 µM. For the same compound, the concentration at 2 days in data set [2] (2 days) is 0.182 µM. In data set [2], this compound came in with a concentration at 9 days of 0.119 µM, a concentration at 16 days of 0.0759 µM, a concentration at 30 days of 0.0693 µM and a concentration at 44 days of 0.0423 µM. The compound further registered a concentration at 58 days in data set [2] of 0.0383 µM. In addition, in data set [2] (0.083 days), the concentration at 0.083 days amounted to 0.0819 µM.
`C[C@]1(COc2ccc(N3CCC(Oc4ccc(OC(F)(F)F)cc4)CC3)cc2)Cn2cc([N+](=O)[O-])nc2O1` [delamanid]: the “Cumulative in vitro drug release Avg.” value in data set [3] (1 day) turned out to be 20.3%; in data set [3] (11 days), 26.8%; in data set [3] (20 days), 38.3%.
